We go through six molecules from ChEMBL document CHEMBL3085770, “The functional group on (E)-4,4'-disubstituted stilbenes influences toxicity and antioxidative activity in differentiated PC-12 cells” (Bioorg Med Chem Lett, 2013).

A short description of series [1]: Cytotoxicity against rat differentiated PC12 cells assessed as cell viability at <= 10 ug/ml after 15 hrs by MTS assay. To be noted: pc-12, 15 h. The class given is cell-based. A general note: Tetrazolium assays rely on reduction of a dye to a coloured formazan, in cell work by metabolically active cells.
The subject of series [2] is Radical scavenging activity. Briefly: Antioxidant activity assessed as DPPH free radical scavenging activity over 30 mins by spectrophotometry. It counts as functional. For orientation: Loss of DPPH colour is used to gauge radical scavenging.
Series [3] in a line: Chemical stability of the compound in PBS buffer at 1 ug/ml after 24 hrs by fluorescence assay in presence of 0.3% H2O2. It counts as physicochemical.
The subject of the next series is PC-12. In words: Antioxidant activity in rat differentiated PC12 cells assessed as inhibition of H2O2-induced cell death after 15 hrs by MTS assay. It counts as functional, cell-based.

Active and inactive are the calls of the source. The rule behind the calls is not given here.

In the case of `CC(=O)c1ccc(/C=C/c2ccc(C(C)=O)cc2)cc1`, in series [1], the Activity result is “Non-toxic”. For the same molecule, in series [2], the result was inactive. The Stability result in series [3] is recorded as “Unstable”.

For the molecule `CC(O)c1ccc(/C=C/c2ccc(C(C)O)cc2)cc1` (stereo not given), the Activity entry in series [1] is given as “Non-toxic”. The outcome (in series [2]; with PC-12) was inactive.

Turning to `Oc1ccc(/C=C/c2ccc(O)cc2)cc1`, the outcome in the series with PC-12 was Active.

Regarding `Nc1ccc(/C=C/c2ccc(N)cc2)cc1`, the Activity entry in series [1] is recorded as “Non-toxic”. The result (in series [2]; in the series with PC-12) was Active.

On to `C(=C\c1ccccc1)/c1ccccc1`, for which the Activity entry in series [1] is listed as “Non-toxic”. Further, the result in series [2] was inactive.

On to `N#Cc1ccc(/C=C/c2ccc(C#N)cc2)cc1`, for which, in series [1], the Activity entry was “Non-toxic”. Besides, the outcome in series [2] was inactive. The Stability entry in series [3] is “Unstable”.
